In the assay the test system is L1210 leukemia ip in BDF1 mice, survival T/C. Description: NCI In Vivo Anticancer Drug Screen. Data for tumor model L1210 Leukemia (intraperitoneal) in B6D2F1 (BDF1) mice. Particulars: endpoint: mean survival time, higher = longer survival. The procedure, abridged: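 Each compound was tested against a transplantable tumor grown in mice. The endpoint was survival, with treated animals benchmarked against vehicle controls as a simple ratio.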

Setting [1] is: dose: 100.0 mg/kg/injection, schedule: Q01DX009 (ip), vehicle: Klucel (hydroxypropylcellulose) (HPC).
Setting [2] is: dose: 100.0 mg/kg/injection, schedule: Q04DX003 (ip), vehicle: Klucel (hydroxypropylcellulose) (HPC).
[3] abbreviates: dose: 200.0 mg/kg/injection, schedule: Q01DX009 (ip), vehicle: Klucel (hydroxypropylcellulose) (HPC).
Where [4] appears, read: dose: 200.0 mg/kg/injection, schedule: Q04DX003 (ip), vehicle: Klucel (hydroxypropylcellulose) (HPC).
[5] abbreviates: dose: 400.0 mg/kg/injection, schedule: Q01DX009 (ip), vehicle: Klucel (hydroxypropylcellulose) (HPC).
[6] abbreviates: dose: 400.0 mg/kg/injection, schedule: Q04DX003 (ip), vehicle: Klucel (hydroxypropylcellulose) (HPC).
The mark [7] stands for this setting: dose: 100.0 mg/kg/injection, schedule: Q01DX009 (ip), vehicle: saline.
Setting [8] is: dose: 200.0 mg/kg/injection, schedule: Q01DX009 (ip), vehicle: saline.
The mark [9] stands for this setting: dose: 100.0 mg/kg/injection, schedule: Q01DX001 (ip), vehicle: saline.
[10] abbreviates: dose: 200.0 mg/kg/injection, schedule: Q01DX001 (ip), vehicle: saline.
Setting [11] is: dose: 400.0 mg/kg/injection, schedule: Q01DX001 (ip), vehicle: saline.
The mark [12] stands for this setting: dose: 100.0 mg/kg/injection, schedule: Q01DX009 (ip), vehicle: saline with Tween-80.
The mark [13] stands for this setting: dose: 200.0 mg/kg/injection, schedule: Q01DX009 (ip), vehicle: saline with Tween-80.
Where [14] appears, read: dose: 400.0 mg/kg/injection, schedule: Q01DX009 (ip), vehicle: saline with Tween-80.
Setting [15] is: dose: 50.0 mg/kg/injection, schedule: Q04DX003 (ip), vehicle: Klucel (hydroxypropylcellulose) (HPC).
Setting [16] is: dose: 100.0 mg/kg/injection, schedule: Q01DX001 (ip), vehicle: Klucel (hydroxypropylcellulose) (HPC).
The mark [17] stands for this setting: dose: 200.0 mg/kg/injection, schedule: Q01DX001 (ip), vehicle: Klucel (hydroxypropylcellulose) (HPC).
[18] abbreviates: dose: 50.0 mg/kg/injection, schedule: Q01DX009 (ip), vehicle: Klucel (hydroxypropylcellulose) (HPC).

Several values for one entry are separate records, joined by “and”; a condition that tells them apart may be missing. Equal entries are not always repeated. Toxic doses and inconclusive results are not listed.

On to `[O-]/[N+](=C\C=C\c1ccccc1)c1ccccc1`, for which the T/C is, setting by setting: under setting [1], 100 % of control; under setting [2], 103 % of control; under setting [3], 90 % of control; under setting [4], 95 % of control; under setting [5], 89 % of control; under setting [6], 86 % of control.
Consider `CC(CN1CCOCC1)O[Si](C)(C)C` (stereo unspecified), for which the T/C was 92 % of control (dose: 50.0 mg/kg/injection, schedule: Q01DX009 (ip), vehicle: saline); 96 % of control under setting [7]; 96 % of control under setting [8].
With `N#CCC1=CC(=O)C(=O)c2ccccc21`, the T/C is 102 % of control under setting [9], 102 % of control under setting [10] and 100 % of control under setting [11].
`O=CNc1ccc(O)cc1`: the T/C was 104 % of control under setting [12], 108 % of control under setting [13] and 114 % of control under setting [14].
Consider `C[n+]1ccc(NC(=O)c2ccc(NC(=O)c3ccc(C(=O)Nc4ccc(C(=O)Nc5cc[n+](C)cc5)cc4)cc3)cc2)cc1`, for which the T/C by setting is: (dose: 62.0 mg/kg/injection, schedule: Q01DX Z (ip), vehicle: carboxymethylcellulose (CMC)) 103 % of control; (dose: 100.0 mg/kg/injection, schedule: Q01DX001 (ip), vehicle: other) 97 % of control; under setting [12], 105 % of control; (dose: 100.0 mg/kg/injection, schedule: Q04DX003 (ip), vehicle: other) 101 % of control; (dose: 125.0 mg/kg/injection, schedule: Q01DX Z (ip), vehicle: carboxymethylcellulose (CMC)) 118 % of control; (dose: 200.0 mg/kg/injection, schedule: Q01DX001 (ip), vehicle: other) 104 % of control. The T/C reads like this: under setting [13], 115 % of control; (dose: 200.0 mg/kg/injection, schedule: Q04DX003 (ip), vehicle: other) 103 % of control; (dose: 400.0 mg/kg/injection, schedule: Q01DX001 (ip), vehicle: other) 103 % of control; under setting [14], 114 % of control; (dose: 400.0 mg/kg/injection, schedule: Q04DX003 (ip), vehicle: other) 98 % of control; (dose: 500.0 mg/kg/injection, schedule: Q01DX Z (ip), vehicle: carboxymethylcellulose (CMC)) 152 % of control.
Consider `CCCCCCCCCCCCC/C=C\C(=O)N(CCCCN(C)C)CCCCN(C)C`, for which the T/C is, setting by setting: (dose: 2.0 mg/kg/injection, schedule: Q01DX009 (ip), vehicle: carboxymethylcellulose (CMC)) 107 % of control; (dose: 4.0 mg/kg/injection, schedule: Q01DX009 (ip), vehicle: carboxymethylcellulose (CMC)) 104 % of control; (dose: 6.0 mg/kg/injection, schedule: Q01DX009 (ip), vehicle: carboxymethylcellulose (CMC)) 101 % of control; (dose: 8.0 mg/kg/injection, schedule: Q01DX009 (ip), vehicle: carboxymethylcellulose (CMC)) 103 % of control; (dose: 10.0 mg/kg/injection, schedule: Q01DX009 (ip), vehicle: carboxymethylcellulose (CMC)) 90 % of control.
`CC1(C)N=C(N)N=C(N)N1c1cccc(Oc2ccc(N)cc2)c1`: the T/C is 103 % of control (dose: 25.0 mg/kg/injection, schedule: Q04DX003 (ip), vehicle: Klucel (hydroxypropylcellulose) (HPC)) and 110 % of control under setting [15].
For `CC(=O)c1ccccc1OCC(O)CN1CCN(c2ccccc2Cl)CC1` (stereo unspecified), the T/C runs as follows: (dose: 37.5 mg/kg/injection, schedule: Q01DX009 (ip), vehicle: saline with Tween-80) 97 % of control; (dose: 37.5 mg/kg/injection, schedule: Q04DX003 (ip), vehicle: saline with Tween-80) 105 % of control; (dose: 75.0 mg/kg/injection, schedule: Q01DX009 (ip), vehicle: saline with Tween-80) 89 % of control; (dose: 75.0 mg/kg/injection, schedule: Q04DX003 (ip), vehicle: saline with Tween-80) 108 % of control; (dose: 150.0 mg/kg/injection, schedule: Q01DX009 (ip), vehicle: saline with Tween-80) 93 % of control; (dose: 150.0 mg/kg/injection, schedule: Q04DX003 (ip), vehicle: saline with Tween-80) 94 % of control.
With `S=c1nc2ccccn2c(=S)n1-c1ccccn1`, the T/C is 106 % of control (dose: 100.0 mg/kg/injection, schedule: Q01DX001 (ip), vehicle: saline with Tween-80) and 100 % of control (dose: 200.0 mg/kg/injection, schedule: Q01DX001 (ip), vehicle: saline with Tween-80).
Take `C=CC[n+]1ccccc1Br`: the T/C (dose: 62.0 mg/kg/injection, schedule: Q01DX015 (ip), vehicle: water) is 102 % of control and the T/C (dose: 125.0 mg/kg/injection, schedule: Q01DX015 (ip), vehicle: water) was 106 % of control.
`O=C1NC(=O)N(c2ccccc2)C(=O)/C1=C/c1ccccc1`: the T/C is 90 % of control under setting [16] and 97 % of control under setting [17].
With `CCOC(=O)c1[nH]c(C(=O)O)c(CCC(=O)OC)c1C`, the T/C reads like this: under setting [18], 110 % of control; under setting [16], 93 % of control; under setting [1], 90 % of control; under setting [17], 98 % of control; (dose: 300.0 mg/kg/injection, schedule: Q01DX009 (ip), vehicle: Klucel (hydroxypropylcellulose) (HPC)) 100 % of control; (dose: 400.0 mg/kg/injection, schedule: Q01DX001 (ip), vehicle: Klucel (hydroxypropylcellulose) (HPC)) 97 % of control.
For the molecule `C/C(N=Nc1ccccc1)=N\Nc1cccc(C(F)(F)F)c1`, the T/C reads like this: under setting [18], 107 % of control; under setting [1], 102 % of control; under setting [3], 110 % of control; under setting [5], 102 % of control.
As for `CN(Cc1ccccc1)C(=O)C(Cl)Cl`, the T/C was 103 % of control (dose: 100.0 mg/kg/injection, schedule: Q04DX002 (ip), vehicle: Klucel (hydroxypropylcellulose) (HPC)); 117 % of control (dose: 200.0 mg/kg/injection, schedule: Q04DX002 (ip), vehicle: Klucel (hydroxypropylcellulose) (HPC)); 109 % of control (dose: 400.0 mg/kg/injection, schedule: Q04DX002 (ip), vehicle: Klucel (hydroxypropylcellulose) (HPC)).
For `Cc1nc2ccccc2c(=O)n1N`, the T/C is 111 % of control under setting [9] and 105 % of control under setting [10].
As to `Cc1cc(C)c(CCO)c(C)c1`, the T/C (dose: 25.0 mg/kg/injection, schedule: Q01DX009 (ip), vehicle: DMSO) is 98 % of control; the T/C (dose: 25.0 mg/kg/injection, schedule: Q04DX003 (ip), vehicle: DMSO) was 93 % of control; the T/C (dose: 50.0 mg/kg/injection, schedule: Q01DX009 (ip), vehicle: DMSO) is 96 % of control; the T/C (dose: 50.0 mg/kg/injection, schedule: Q04DX003 (ip), vehicle: DMSO) was 102 % of control; the T/C (dose: 100.0 mg/kg/injection, schedule: Q04DX003 (ip), vehicle: DMSO) is 102 % of control.
With `NC(N)(C(F)(F)F)C(F)(F)F`, the T/C is, setting by setting: under setting [9], 101 % of control; under setting [10], 102 % of control; under setting [11], 98 % of control.
Take `COC1OC(COS(=O)(=O)c2ccc(C)cc2)C2OC(C)(C)OC12` (stereo unspecified): the T/C by setting is: under setting [18], 107 % of control; under setting [15], 92 % of control; under setting [1], 95 % of control; under setting [7], 96 % of control; under setting [2], 92 % of control and 94 % of control; under setting [3], 104 % of control. Also, the T/C runs as follows: under setting [8], 91 % of control; under setting [4], 92 % of control and 91 % of control; under setting [5], 96 % of control; (dose: 400.0 mg/kg/injection, schedule: Q01DX009 (ip), vehicle: saline) 91 % of control; under setting [6], 105 % of control and 91 % of control.
In the case of `Cn1c(C(C)(C)O)cc2ccccc21`, the T/C by setting is: (dose: 100.0 mg/kg/injection, schedule: Q04DX003 (ip), vehicle: saline with Tween-80) 102 % of control; (dose: 200.0 mg/kg/injection, schedule: Q04DX003 (ip), vehicle: saline with Tween-80) 107 % of control; (dose: 400.0 mg/kg/injection, schedule: Q04DX003 (ip), vehicle: saline with Tween-80) 100 % of control.
For `CCCCN(Cc1ccccc1)C(=O)NC(C)(C)C`, the T/C by setting is: under setting [1], 97 % of control; under setting [3], 102 % of control; under setting [5], 97 % of control.

Source of the values: PubChem BioAssay AID248 (DTP/NCI, 2004).
